Results: US20250049799A1, “Targeted Therapy of Pyrrolo[2,3-D]Pyrimidine Antifolates in a Syngeneic Mouse Model of High Grade Serous Ovarian Cancer” (Duquesne University of The Holy Spirit, priority 2021, published 2025)
Like-named read-outs stand apart in the source and are kept apart here.

Assays:
FRβ = FRβ (Homo sapiens, UniProt P14207); settings: comparison of Table 3 values with PMX
IGROV1 human EOC cells = experiment: Cell proliferation assay, IGROV1 cells; assay type: cell-based
Method: (§1) Results with BR-5 and BR-Luc cells were compared to those for IGROV1 human EOC cells (Table 1) in the absence and presence of excess folic acid (200 nM), which selectively blocks FR-mediated drug uptake without effects on RFC or PCFT^6. […] Further, inhibitions of the murine EOCs by all compounds approximated those for IGROV1 human EOC cells.
(§2) Cell proliferation assays were performed as described^6, 21. Cells were plated in 96-well dishes at densities ranging from 2500-5000 cells/well in 200 μL media and treated with a range of inhibitors spanning 0-1000 nM. Experiments used BR-5 and BR-Luc cells and folate-free RPMI 1640 media with 10% dialyzed FBS and 100 units/mL penicillin/100 μg/mL streptomycin, supplemented with 25 nM leucovorin and 2 mM L-glutamine. FR-mediated drug uptake was assessed in parallel incubations including 200 nM folic acid. Cells were treated over a 96 h period at 37° C. with 5% CO2 and relative cell numbers were quantified using the CellTiter-blue cell viability assay (Promega, Madison, WI) and a fluorescence plate reader^21. Raw data were exported to Excel for analysis and the results plotted using Graphpad Prism 6.0.

[1] = system: BR-Luc mouse HGSOC tumor cells; experiment: Cell proliferation assay (CellTiter-blue, 96 h), BR-Luc cells; assay type: cell-based
Method: as §1, §2

[2] = system: BR-5 mouse HGSOC tumor cells; experiment: Cell proliferation assay (CellTiter-blue, 96 h), BR-5 cells; assay type: cell-based
Method: as §1, §2

Sequence of FRβ (P14207 17-230): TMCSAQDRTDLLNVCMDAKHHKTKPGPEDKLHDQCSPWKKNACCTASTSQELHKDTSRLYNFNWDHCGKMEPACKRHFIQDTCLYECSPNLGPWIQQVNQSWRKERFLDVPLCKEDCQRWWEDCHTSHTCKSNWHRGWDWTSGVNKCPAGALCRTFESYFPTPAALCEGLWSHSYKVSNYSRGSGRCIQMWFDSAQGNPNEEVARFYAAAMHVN

For `Nc1nc2[nH]c(CCCCc3cnc(C(=O)N[C@@H](CCC(=O)O)C(=O)O)c(F)c3)cc2c(=O)[nH]1` [Compound 10], the “Transport by folate receptor beta compared with pemetrexed (PMX)” value (from here on “Transport … compared with pemetrexed (PMX)”) (FRβ) was “at least ten times better transported”.

Work on `N.N.[Cl][Pt][Cl]` [Cisplatin, reference compound] yielded an IC50 (IGROV1 human EOC cells; no folic acid, mean ± SE, read-out: IC50 anti-proliferative activity IGROV1, No addition) of 857 ± 62.3 nM, an IC50 ([1]; no folic acid, folate-free RPMI1640, 25 nM leucovorin, mean ± SE, read-out: IC50 anti-proliferative activity BR-Luc, No addition) of 290 ± 170 nM and an IC50 ([2]; no folic acid, mean ± SE, read-out: IC50 anti-proliferative activity BR-5, No addition) of 160 ± 110 nM.

For `Nc1nc2[nH]c(CCCCc3ccc(C(=O)N[C@@H](CCC(=O)O)C(=O)O)nc3)cc2c(=O)[nH]1` [Compound 4], the “Transport … compared with pemetrexed (PMX)” value (FRβ) was “at least ten times better transported”.

In the case of `Nc1nc2[nH]c(CCCCc3ccc(C(=O)N[C@@H](CCC(=O)O)C(=O)O)cc3)cc2c(=O)[nH]1` [Compound 2], the “Transport … compared with pemetrexed (PMX)” value (FRβ) is reported as “at least ten times better transported”.

`Nc1nc2[nH]c(CCCCc3ccc(C(=O)N[C@@H](CCC(=O)O)C(=O)O)c(F)c3)cc2c(=O)[nH]1` [Compound 8] was tested, and the “Transport … compared with pemetrexed (PMX)” value (FRβ) was “at least ten times better transported”.

For `Nc1nc2[nH]c(CCCCc3csc(C(=O)N[C@@H](CCC(=O)O)C(=O)O)c3)cc2c(=O)[nH]1` [Compound 5], the “Transport … compared with pemetrexed (PMX)” value (FRβ) was “at least ten times better transported”.

Work on `Nc1nc2[nH]c(CCCCc3csc(C(=O)N[C@@H](CCC(=O)O)C(=O)O)c3F)cc2c(=O)[nH]1` [AGF278] yielded an IC50 (IGROV1 human EOC cells; Homo sapiens, IGROV-1, no folic acid, mean ± SE, read-out: IC50 anti-proliferative activity IGROV1, No addition) of 1.9 ± 0.15 nM, an IC50 (IGROV1 human EOC cells; Homo sapiens, IGROV-1, read-out: IC50 anti-proliferative activity IGROV1, Folic Acid (200 nM), with 200 nM folic acid, mean ± SE) of 426 ± 152 nM and an IC50 ([1]; Mus musculus, no folic acid, folate-free RPMI1640, 25 nM leucovorin, mean ± SE, read-out: IC50 anti-proliferative activity BR-Luc, No addition) of 6.06 ± 3.12 nM. It also gave an IC50 ([1]; Mus musculus, read-out: IC50 anti-proliferative activity BR-Luc, Folic Acid (200 nM), with 200 nM folic acid, mean ± SE) of 588 ± 162 nM, an IC50 ([2]; Mus musculus, no folic acid, mean ± SE, read-out: IC50 anti-proliferative activity BR-5, No addition) of 6.55 ± 3.24 nM and an IC50 ([2]; Mus musculus, read-out: IC50 anti-proliferative activity BR-5, Folic Acid (200 nM), with 200 nM folic acid, mean ± SE) of 547 ± 188 nM. The “Transport … compared with pemetrexed (PMX)” value (FRβ) was “at least ten times better transported”.

`Nc1nc2[nH]c(CCCc3ccc(C(=O)N[C@@H](CCC(=O)O)C(=O)O)s3)cc2c(=O)[nH]1` [Compound 1] was tested, and the “Transport … compared with pemetrexed (PMX)” value (FRβ) was “at least ten times better transported”.
